# Source: US20070197606A1, “USE OF PPAR AGONISTS AS ANTI-OXIDANTS” (priority 2006, published 2007)
# Assays:
# [1] = In vitro antioxidative effect on free radicals released by the hydrophilic free radical generator AAPH; type: biochemical; settings: mean±SD, n=6
# Procedure: FIG. 6 Effect of L-FABP on free radicals released by the hydrophilic free radical generator AAPH. L-FABP had as much effect on inactivating hydrophilic free radicals as 3.5 mM Vitamin C, while lysozyme and albumin had negligible effect, 96±1% and 97±1%, respectively (mean±SD, n=6).
# (§1) Our group has constructed and isolated recombinant L-FABP and used this protein in an in vitro model to study it's antioxidative properties.
# [2] = system: bile duct ligated rats; type: in vivo, rat; settings: serum; BDL rats, clofibrate 50 mg/100 g body weight/day by gavage for 5 days after 7 days BDL; mean ± standard error
# [3] = system: liver fatty acid binding protein; assay: L-FABP mRNA (RT-PCR) and protein (Western blot) level in liver of bile duct ligated rats with clofibrate treatment; type: in vivo, rat; settings: BDL rats, five day treatment with clofibrate, n=5
# Excerpt: FIG. 5. […] Bile-duct ligation animal model time study: […] Histopathologic examination: […] The sense primer was [NT] […] ID NO: 2) (position at 407).
# [4] = system: bile duct ligated rats; assay: Lipid peroxidation (thiobarbituric acid-reactive substances) assay in bile duct ligated rats with clofibrate treatment; type: in vivo, rat; settings: BDL rats, clofibrate 50 mg/100 g body weight/day by gavage for 5 days after 7 days BDL, mean ± standard error
# Excerpt: Bile-duct ligation animal model time study: […] Histopathologic examination: […] The sense primer was [NT] […] ID NO: 2) (position at 407).
# [5] = In vitro antioxidative effect on free radicals released by the lipophilic free radical generator AMVN; type: biochemical
# Procedure: FIG. 7 Effect of L-FABP on free radicals released by the lipophilic free radical generator AMVN. L-FABP had as much effect on inactivating lipophilic free radicals as 5 μM Vitamin E (mean±SD, n=6).
# as §1
compound,measurement,setting,value
Albumin,effect on free radical inactivation (AAPH),[1],97±1%
CCOC(=O)C(C)(C)Oc1ccc(Cl)cc1 [Clofibrate],ATL,[2],30.70 ± 3.26 U/L
same,Ammonia,[2],205.7 ± 16.6 µmol/L
same,Total Bilirubin,[2],4.87 ± 0.90 mg/dL
same,"liver fatty acid binding protein mRNA level, of the sham group",[3]; RT-PCR,74%
same,"liver fatty acid binding protein level, of the sham group",[3]; Western blot,79%
same,TBARS (liver),[4]; liver,0.266 ± 0.053 nmol/mg protein
same,TBARS (serum),[4]; serum,0.212 ± 0.032 nmol/ml serum
Lysozyme,effect on free radical inactivation (AAPH),[1],96±1%
O=C1O[C@H]([C@@H](O)CO)C(O)=C1O [Vitamin C],antioxidant properties in the AMVN system,[5],no antioxidant properties
